IC50 data for 26 molecules are collected here from ChEMBL document CHEMBL5576099, “Isolation, Characterization, and Antiproliferative Activity of Terpenoids from the Tropical Plant Turraea delphinensis” (J Nat Prod, 2024).

Common to all, as to type: functional, cell-based
Assay [1] is described as follows: Antiproliferative activity against human KB-VIN cells over expressing p-gp assessed as reduction in cell viability by SRB assay. Particulars: KBVIN.
For a further assay, the system named is MDA-MB-231. The assay can be described thus: Antiproliferative activity against human MDA-MB-231 cells assessed as reduction in cell viability by SRB assay.
Another assay deals with KB. The assay can be described thus: Antiproliferative activity against human KB cells assessed as reduction in cell viability by SRB assay.
For another assay, the system named is MCF7. In words: Antiproliferative activity against human MCF7 cells assessed as reduction in cell viability by SRB assay.
Another assay relates to A549. In words: Antiproliferative activity against human A549 cells assessed as reduction in cell viability by SRB assay.

With `C[C@H](C/C=C/C(C)(C)O)[C@H]1CC[C@@]2(C)[C@@H]3CC[C@H]4C(C)(C)C(=O)CC[C@@]45C[C@@]35CC[C@]12C`, the IC50 was more than 10 µM in assay [1]; more than 10 µM in the assay on MDA-MB-231; more than 10 µM in the assay with KB; more than 10 µM in the assay on MCF7; 9.6 µM in the assay with A549.
Turning to `C[C@@H](C[C@@H](O)[C@H](O)C(C)(C)O)[C@@H]1CC[C@]2(C)C3=CC[C@H]4C(C)(C)[C@@H](O)CC[C@]4(C)[C@H]3CC[C@@]12C`, the IC50 in assay [1] was 9.7 µM; in the assay with MDA-MB-231, more than 10 µM; with KB, 8.2 µM; in the assay with MCF7, more than 10 µM; in the assay on A549, 8 µM.
As for `CC(C)=C[C@@H]1C[C@H]([C@H]2CC[C@@]3(C)[C@@H]4CC[C@H]5C(C)(C)C(=O)CC[C@@]56C[C@@]46CC[C@]23C)CO1`, the concentration for half-maximal inhibition (IC50) (in assay [1]; in the assay on MDA-MB-231; with KB; in the assay with MCF7; in the assay with A549) was more than 10 µM each time.
For the molecule `C[C@@H]([C@H](O)/C=C/C(C)(C)O)[C@@H]1CC[C@]2(C)C3=CC[C@H]4C(C)(C)C(=O)CC[C@]4(C)[C@H]3CC[C@@]12C`, the IC50 is 9.5 µM in assay [1]; more than 10 µM in the assay with MDA-MB-231; 9 µM in the assay on KB; more than 10 µM in the assay on MCF7; more than 10 µM in the assay on A549.
With `C=C[C@]1(C)C=C2C(=O)CC3C(C)(C)CCC[C@]3(C)C2CC1` (stereo partly drawn), the IC50 (in assay [1]; in the assay with MDA-MB-231; in the assay on KB; with MCF7; in the assay on A549) was more than 10 µM in each case.
For `CC(C)=CC(O)C[C@H](C)[C@@H]1CC[C@]2(C)C3=CCC4C(C)(C)[C@@H](O)CC[C@]4(C)[C@H]3CC[C@@]12C` (stereo partly drawn), the 50% inhibitory concentration (IC50) (in assay [1]; in the assay on MDA-MB-231; with KB; with MCF7; with A549) was more than 10 µM throughout.
With `CC1(C)OCC([C@@H]2CC[C@]3(C)C4=CC[C@H]5C(C)(C)C(=O)CC[C@]5(C)[C@H]4CC[C@@]23C)C[C@@H](O)[C@@H]1O` (stereo partly drawn), the IC50 in assay [1] is 7.9 µM; in the assay with MDA-MB-231 it was more than 10 µM; in the assay on KB, 9.5 µM; in the assay on MCF7 it was more than 10 µM; with A549 it was 8.3 µM.
As to `C=C[C@]1(C)C=C2C(CC1)[C@@]1(C)CCCC(C)(C)C1C[C@@H]2O` (stereo partly drawn), the IC50 (in assay [1]; in the assay with MDA-MB-231; with KB; in the assay on MCF7; in the assay with A549) was more than 10 µM throughout.
Take `CC1(C)C(=O)CC[C@@]2(C)C1CC=C1[C@@H]2CC[C@@]2(C)[C@H](C3CO[C@@H](C(C)(C)O)[C@H](O)C3)CC[C@]12C` (stereo partly drawn): the half-inhibitory concentration (IC50) (in assay [1]; in the assay with MDA-MB-231; in the assay with KB; with MCF7; in the assay with A549) was more than 10 µM in each case.
Turning to `CC(=O)O[C@H]1[C@@H](OC(C)=O)[C@@]2(C)C3=CC[C@@H]([C@H]4COC(=O)C4)[C@]3(C)CC[C@@H]2[C@@]2(C)[C@@H](O)C[C@@H](O)C(C)(C)[C@H]12`, the IC50 (in assay [1]; with MDA-MB-231; with KB; in the assay with MCF7; in the assay with A549) was more than 10 µM throughout.
`CC(C)=CC(=O)C[C@@H](C)[C@H]1CC[C@@]2(C)[C@@H]3CC[C@H]4C(C)(C)C(=O)CC[C@@]45C[C@@]35CC[C@]12C`: the IC50 (in assay [1]; with MDA-MB-231; with KB; with MCF7; in the assay with A549) was more than 10 µM each time.
In the case of `C[C@H](C/C=C/C(C)(C)O)[C@H]1CC[C@@]2(C)[C@@H]3CC[C@H]4C(C)(C)[C@H](O)CC[C@@]45C[C@@]35CC[C@]12C`, the IC50 in assay [1] is more than 10 µM; in the assay with MDA-MB-231 it was 9.3 µM; in the assay with KB it was more than 10 µM; with MCF7 it was more than 10 µM; in the assay on A549, more than 10 µM.
In the case of `C=C1CC[C@@H]2[C@H]([C@H]3[C@@H]1CC[C@]3(C)O)[C@@]2(C)CCC=C(C)C`, the IC50 (in assay [1]; in the assay on MDA-MB-231; with KB; with MCF7; with A549) was more than 10 µM each time.
In the case of `CC(C)CC(=O)[C@@H](O)[C@H](C)[C@@H]1CC[C@]2(C)C3=CC[C@H]4C(C)(C)C(=O)CC[C@]4(C)[C@H]3CC[C@@]12C`, the IC50 (in assay [1]; in the assay on MDA-MB-231; with KB; in the assay with MCF7; in the assay with A549) was more than 10 µM in each case.
For `CC(C)=CC(=O)C[C@@H](C)[C@H]1CC[C@@]2(C)[C@@H]3CC[C@H]4C(C)(C)[C@@H](O)CC[C@@]45C[C@@]35CC[C@]12C`, the IC50 (in assay [1]; in the assay with MDA-MB-231; with KB; in the assay on MCF7; with A549) was more than 10 µM each time.
`CC(C)=CCC[C@@H](CO)[C@H]1CC[C@@]2(C)[C@@H]3CC[C@H]4C(C)(C)C(=O)CC[C@@]45C[C@@]35CC[C@]12C`: the IC50 in assay [1] was 6.2 µM; with MDA-MB-231, 7.4 µM; in the assay with KB it was 3.9 µM; with MCF7 it was more than 10 µM; in the assay on A549, 6.5 µM.
As for `CC(C)=CCC[C@]1(C)[C@H]2[C@@H]3[C@H](C)CC[C@H]3[C@](C)(O)CC[C@H]21`, the IC50 in assay [1] is more than 10 µM; with MDA-MB-231, more than 10 µM; with KB it was 8.9 µM; with MCF7 it was more than 10 µM; in the assay on A549, 8.9 µM.
Turning to `C[C@@H](C[C@@H](O)[C@@H]1OC1(C)C)[C@@H]1CC[C@]2(C)C3=CC[C@H]4C(C)(C)C(=O)CC[C@]4(C)[C@H]3CC[C@@]12C`, the IC50 in assay [1] is 6.1 µM; in the assay with MDA-MB-231 it was 7.1 µM; in the assay with KB, 4.6 µM; in the assay on MCF7, 6.9 µM; in the assay on A549 it was 5.9 µM.
Taken in the same sequence, the figures for `C[C@@H]([C@@H]1O[C@@H]1[C@@H]1OC1(C)C)[C@@H]1CC[C@]2(C)C3=CC[C@H]4C(C)(C)C(=O)CC[C@]4(C)[C@H]3CC[C@@]12C` were 8.3 µM, more than 10 µM, 8.1 µM, more than 10 µM and 5.4 µM.
On the same counts, the results for `CC(C)=C[C@H]1C[C@H]([C@H]2CC[C@@]3(C)[C@@H]4CC[C@H]5C(C)(C)C(=O)CC[C@@]56C[C@@]46CC[C@]23C)CO1` are more than 10 µM, more than 10 µM, more than 10 µM, more than 10 µM and more than 10 µM.
As to `CC(C)=C[C@H](O)C[C@@H](CO)[C@H]1CC[C@@]2(C)[C@@H]3CC[C@H]4C(C)(C)C(=O)CC[C@@]45C[C@@]35CC[C@]12C` (mixture of isomers), the IC50 in assay [1] was 9.9 µM; in the assay on MDA-MB-231, more than 10 µM; in the assay with KB it was more than 10 µM; in the assay with MCF7, more than 10 µM; in the assay with A549, more than 10 µM.
Regarding `C[C@H]([C@H]1OC(C)(C)[C@@H](O)[C@@H]1O)[C@@H]1CC[C@]2(C)C3=CC[C@H]4C(C)(C)C(=O)CC[C@]4(C)[C@H]3CC[C@@]12C` (relative stereo), the IC50 (in assay [1]; in the assay with MDA-MB-231; in the assay with KB; with MCF7; in the assay on A549) was more than 10 µM each time.
`CC(C)(O)[C@@H]1CC[C@H]([C@H]2CC[C@@]3(C)[C@@H]4CC[C@H]5C(C)(C)C(=O)CC[C@@]56C[C@@]46CC[C@]23C)CO1` (relative stereo): the IC50 in assay [1] was more than 10 µM; in the assay with MDA-MB-231, more than 10 µM; in the assay with KB it was more than 10 µM; in the assay on MCF7, more than 10 µM; in the assay with A549, 9.1 µM.
Regarding `C[C@H](C[C@@H](O)[C@@H]1OC1(C)C)[C@H]1CC[C@@]2(C)[C@@H]3CC[C@H]4C(C)(C)C(=O)CC[C@@]45C[C@@]35CC[C@]12C` (relative stereo), the IC50 (in assay [1]; in the assay with MDA-MB-231; in the assay on KB; in the assay with MCF7; in the assay with A549) was more than 10 µM in each case.
As for `C[C@@H](C[C@@H](O)[C@@H]1OC1(C)C)[C@@H]1CC[C@]2(C)C3=CC[C@H]4C(C)(C)[C@@H](O)CC[C@]4(C)[C@H]3CC[C@@]12C` [DIHYDRONILOTICIN], the IC50 in assay [1] came to 5.1 µM; in the assay on MDA-MB-231, 4.7 µM; in the assay with KB, 4.8 µM; in the assay with MCF7, 7.2 µM; in the assay on A549 it was 5.2 µM.
As to `CC(=O)O[C@H]1C(=O)[C@@]2(C)[C@H]([C@H](OC(=O)c3ccccc3)[C@]3(O)C[C@H](OC(=O)[C@H](O)[C@@H](NC(=O)c4ccccc4)c4ccccc4)C(C)=C1C3(C)C)[C@]1(OC(C)=O)CO[C@@H]1C[C@@H]2O` [PACLITAXEL], the IC50 worked out at 2.21 µM in assay [1], 0.0084 µM with MDA-MB-231 and 0.0071 µM with KB.
